BindingDB's records for doi:10.1016/s0960-894x(00)00605-3 (Merck Research Laboratories, 2001)

Molecular target: histone deacetylase enzyme from partially purified extracts of Eimeria tenella
Test: ChEBML_79057
Excerpt: Inhibitory activity against histone deacetylase enzyme derived from partially purified extracts of Eimeria tenella protozoa using [3H]11 as radioligand

Row | Compound | IC50
1 | CCC(=O)CCCCC[C@@H]1NC(=O)[C@H]2CCCCN2C(=O)[C@H]([C@@H](C)CC)NC(=O)[C@H](c2cnc3ccccc3c2Cl)NC1=O | 2 nM
2 | CCC(=O)CCCCC[C@@H]1NC(=O)[C@H]2CCCCN2C(=O)[C@H]([C@@H](C)CC)NC(=O)[C@H](Cc2c(Br)[nH]c3ccccc23)NC1=O | 200 nM
3 | CCC(=O)CCCCC[C@@H]1NC(=O)[C@H]2CCCCN2C(=O)[C@H]([C@@H](C)CC)NC(=O)[C@H](CC2CN(OC)c3ccc(Br)cc32)NC1=O (stereo not given in full) | 2500 nM
4 | CCC(=O)CCCCC[C@@H]1NC(=O)[C@H]2CCCCN2C(=O)[C@H]([C@@H](C)CC)NC(=O)[C@H](Cc2cn(OC)c3ccc(Br)cc23)NC1=O | 175 nM
5 | CCC(=O)CCCCC[C@@H]1NC(=O)[C@H]2CCCCN2C(=O)[C@H]([C@@H](C)CC)NC(=O)[C@H](c2cnc3ccccc3c2N2CCCCC2)NC1=O | 0.8 nM

Further lines, results first:

Row | IC50 | Compound
6 | 4 nM | CCC(=O)CCCCC[C@@H]1NC(=O)[C@H]2CCCCN2C(=O)[C@H]([C@@H](C)CC)NC(=O)[C@H](c2cn(OC)c3ccccc3c2=O)NC1=O
7 | 11 nM | CCC(=O)CCCCC[C@@H]1NC(=O)[C@H]2CCCCN2C(=O)[C@H]([C@@H](C)CC)NC(=O)[C@H](c2cn(CC)c3ccccc3c2=O)NC1=O
8 | 100 nM | CCC(=O)CCCCC[C@@H]1NC(=O)[C@H]2CCCCN2C(=O)[C@H]([C@@H](C)CC)NC(=O)[C@H](Cc2cn(CC(=O)O)c3ccccc23)NC1=O
9 | 4 nM | CCCn1cc(C(O)c2nc(O)c(CCCCCC(=O)CC)[nH]c(O)c3n(c(O)c([C@@H](C)CC)[nH]c2=O)CCCC3)c2ccccc21 (stereo not given in full)
10 | 1 nM | CCC(=O)CCCCC[C@@H]1NC(=O)[C@H]2CCCCN2C(=O)[C@H]([C@@H](C)CC)NC(=O)[C@H](Cc2c[nH]c3ccccc23)NC1=O
11 | 100 nM | CCC(=O)CCCCC[C@@H]1NC(=O)[C@H]2CCCCN2C(=O)[C@H]([C@@H](C)CC)NC(=O)[C@H](Cc2cn(CC)c3ccccc23)NC1=O
12 | 33 nM | CCC(=O)CCCCCc1[nH]c(O)c2n(c(O)c([C@@H](C)CC)[nH]c(=O)c(CC(O)c3ccccc3[N+](=O)[O-])nc1O)CCCC2 (stereo not given in full)
13 | 30 nM | CCC(=O)CCCCCc1[nH]c(O)c2n(c(O)c([C@@H](C)CC)[nH]c(=O)c(C(O)c3ccc4c(ccn4C)c3)nc1O)CCCC2 (stereo not given in full)
14 | 23 nM | CCC(=O)CCCCCc1[nH]c(O)c2n(c(O)c([C@@H](C)CC)[nH]c(=O)c(C(O)c3c[nH]c4ccccc34)nc1O)CCCC2 (stereo not given in full)
15 | 5 nM | CCC(=O)CCCCC[C@@H]1NC(=O)[C@H]2CCCCN2C(=O)[C@H]([C@@H](C)CC)NC(=O)[C@H](Cc2cn(C)c3ccccc23)NC1=O
16 | 25 nM | CCC(=O)CCCCC[C@@H]1NC(=O)[C@H]2CCCCN2C(=O)[C@H]([C@@H](C)CC)NC(=O)[C@H](Cc2c(-c3ccc4c(ccn4C)c3)[nH]c3ccccc23)NC1=O
17 | 3 nM | CCC(=O)CCCCC[C@@H]1NC(=O)[C@H]2CCCCN2C(=O)[C@H]([C@@H](C)CC)NC(=O)[C@H](CCOc2ccccc2)NC1=O

Molecular target: Histone deacetylase (Eimeria tenella)
Test: Binding affinity towards HDAC enzyme derived from Eimeria tenella protozoa

Row | Compound | Ki
18 | CCC(=O)CCCCC[C@@H]1NC(=O)[C@H]2CCCCN2C(=O)[C@H]([C@@H](C)CC)NC(=O)[C@H](c2cnc3ccccc3c2Cl)NC1=O | 50 nM
19 | CCC(=O)CCCCC[C@@H]1NC(=O)[C@H]2CCCCN2C(=O)[C@H]([C@@H](C)CC)NC(=O)[C@H](c2cn(OC)c3ccccc3c2=O)NC1=O | 30 nM
20 | CCC(=O)CCCCC[C@@H]1NC(=O)[C@H]2CCCCN2C(=O)[C@H]([C@@H](C)CC)NC(=O)[C@H](c2cnc3ccccc3c2O)NC1=O | 10 nM
21 | CCC(=O)CCCCC[C@@H]1NC(=O)[C@H]2CCCCN2C(=O)[C@H]([C@@H](C)CC)NC(=O)[C@H](c2cn(CC)c3ccccc3c2=O)NC1=O | 70 nM
22 | CCCCCCCCCCC(=O)C[C@@H]1NC(=O)[C@H](CCCCCC(=O)CC)NC(=O)[C@H]2CCCCN2C(=O)[C@H]([C@@H](C)CC)NC1=O | > 1000 nM
23 | CCC(=O)CCCCC[C@@H]1NC(=O)[C@H]2CCCCN2C(=O)[C@H]([C@@H](C)CC)NC(=O)[C@@H](c2cnc3ccccc3c2O)NC1=O | 250 nM
24 | CCC(=O)CCCCC[C@@H]1NC(=O)[C@H]2CCCCN2C(=O)[C@H]([C@@H](C)CC)NC(=O)[C@H](c2cnc3ccccc3c2N2CCCCC2)NC1=O | 20 nM

Molecular target: not listed separately
Test: Inhibitory activity against histone deacetylase enzyme derived from partially purified extracts of Eimeria tenella protozoa using [3H]11 as radioligand

Row | Compound | IC50
25 | CCC(=O)CCCCC[C@@H]1NC(=O)[C@H]2CCCCN2C(=O)[C@H]([C@@H](C)CC)NC(=O)[C@H](C(=O)c2c[nH]c3ccccc23)NC1=O | 10 nM
